# According to patent US9777003B2, “Tricyclic heterocycles as bet protein inhibitors” (Incyte Corporation, priority 2013, dated 2017):
# What was measured:
# [1] = target: BRD4-BD1 (Homo sapiens (Human), UniProt O60885); test: BRD4 AlphaScreen assay, BRD4-BD1; type: binding; conditions: biotin-labeled tetra-acetylated histone H4 peptide, 75 min, room temperature, read-out: BRD4 BD-1 enzyme IC50
# In short: (§1)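 Bromodomain–H4Ac4 peptide (50 nM) proximity assay; BD1 at 3.8 nM, BD2 at 20 nM. Reaction 75 min RT, bead detection 75 min in the dark, IC50 by dose-response fit.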
# [2] = target: BRD4-BD2 (Homo sapiens (Human), UniProt O60885); test: BRD4 AlphaScreen assay, BRD4-BD2; type: binding; conditions: biotin-labeled tetra-acetylated histone H4 peptide, 75 min, room temperature, read-out: BRD4 BD-2 enzyme IC50
# In short: as §1
SMILES,IC50 [1] [nM],IC50 [2] [nM]
"Cc1nnc2ccc3c(cc(-c4cn(C)cn4)n3Cc3ccccc3)n12 [Example 70, 6-benzyl-1-methyl-7-(1-methyl-1H-imidazol-4-yl)-6H-pyrrolo[2,3-e][1,2,4]triazolo[4,3-a]pyridine]",≤ 100,≤ 100
"Cc1nnc2ccc3c(cc(-c4cncn4C)n3Cc3ccccc3)n12 [Example 71, 6-benzyl-1-methyl-7-(1-methyl-1H-imidazol-5-yl)-6H-pyrrolo[2,3-e][1,2,4]triazolo[4,3-a]pyridine]",100 to 1000,1000 to 10000
"Cc1nnc2ccc3c(cc(-c4ccsc4)n3Cc3ccccc3)n12 [Example 72, 6-benzyl-1-methyl-7-(3-thienyl)-6H-pyrrolo[2,3-e][1,2,4]triazolo[4,3-a]pyridine]",≤ 100,≤ 100
"Cc1nnc2ccc3c(cc(-c4cccs4)n3Cc3ccccc3)n12 [Example 73, 6-benzyl-1-methyl-7-(2-thienyl)-6H-pyrrolo[2,3-e][1,2,4]triazolo[4,3-a]pyridine]",100 to 1000,≤ 100
"Cc1nnc2ccc3c(cc(-c4c[nH]cn4)n3Cc3ccccc3)n12 [Example 74, 6-benzyl-7-(1H-imidazol-4-yl)-1-methyl-6H-pyrrolo[2,3-e][1,2,4]triazolo[4,3-a]pyridine]",≤ 100,≤ 100
"Cc1nnc2ccc3c(cc(-c4cn(CCN5CCOCC5)cn4)n3Cc3ccccc3)n12 [Example 75, 6-benzyl-1-methyl-7-[1-(2-morpholin-4-ylethyl)-1H-imidazol-4-yl]-6H-pyrrolo[2,3-e][1,2,4]triazolo[4,3-a]pyridine]",≤ 100,≤ 100
"Cc1nnc2ccc3c(cc(-c4ccn(C)n4)n3Cc3ccccc3)n12 [Example 76, 6-benzyl-1-methyl-7-(1-methyl-1H-pyrazol-3-yl)-6H-pyrrolo[2,3-e][1,2,4]triazolo[4,3-a]pyridine]",≤ 100,≤ 100
"Cc1nnc2ccc3c(cc(-c4ccn(CCN5CCOCC5)n4)n3Cc3ccccc3)n12 [Example 77, 6-benzyl-1-methyl-7-[1-(2-morpholin-4-ylethyl)-1H-pyrazol-3-yl]-6H-pyrrolo[2,3-e][1,2,4]triazolo[4,3-a]pyridine]",≤ 100,≤ 100
"Cc1nnc2ccc3c(cc(-c4ccn(CCC#N)n4)n3Cc3ccccc3)n12 [Example 78, 3-[3-(6-benzyl-1-methyl-6H-pyrrolo[2,3-e][1,2,4]triazolo[4,3-a]pyridin-7-yl)-1H-pyrazol-1-yl]propanenitrile]",≤ 100,≤ 100
"CCn1ccc(-c2cc3c(ccc4nnc(C)n43)n2Cc2ccccc2)n1 [Example 79, 6-benzyl-7-(1-ethyl-1H-pyrazol-3-yl)-1-methyl-6H-pyrrolo[2,3-e][1,2,4]triazolo[4,3-a]pyridine]",≤ 100,≤ 100
"CCn1cnc(-c2cc3c(ccc4nnc(C)n43)n2Cc2ccccc2)c1 [Example 80, 6-benzyl-7-(1-ethyl-1H-imidazol-4-yl)-1-methyl-6H-pyrrolo[2,3-e][1,2,4]triazolo[4,3-a]pyridine]",≤ 100,≤ 100
"Cc1nnc2ccc3c(cc(-c4cn(CCC#N)cn4)n3Cc3ccccc3)n12 [Example 81, 3-[4-(6-benzyl-1-methyl-6H-pyrrolo[2,3-e][1,2,4]triazolo[4,3-a]pyridin-7-yl)-1H-imidazol-1-yl]propanenitrile]",≤ 100,≤ 100
"CNC(=O)c1cc2c(ccc3nnc(C)n32)n1Cc1ccccc1 [Example 82, 6-benzyl-N,1-dimethyl-6H-pyrrolo[2,3-e][1,2,4]triazolo[4,3-a]pyridine-7-carboxamide]",≤ 100,≤ 100
"CCCNC(=O)c1cc2c(ccc3nnc(C)n32)n1Cc1ccccc1 [Example 83, 6-benzyl-1-methyl-N-propyl-6H-pyrrolo[2,3-e][1,2,4]triazolo[4,3-a]pyridine-7-carboxamide]",≤ 100,≤ 100
"Cc1nnc2ccc3c(cc(C(=O)NC(C)C)n3Cc3ccccc3)n12 [Example 84, 6-benzyl-N-isopropyl-1-methyl-6H-pyrrolo[2,3-e][1,2,4]triazolo[4,3-a]pyridine-7-carboxamide]",100 to 1000,100 to 1000
"Cc1nnc2ccc3c(cc(C(=O)NC4CCC4)n3Cc3ccccc3)n12 [Example 85, 6-benzyl-N-cyclobutyl-1-methyl-6H-pyrrolo[2,3-e][1,2,4]triazolo[4,3-a]pyridine-7-carboxamide]",≤ 100,≤ 100

SMILES,IC50 [1] [nM],IC50 [2] [nM]
"Cc1nnc2ccc3c(cc(C(=O)N[C@H](C)C(F)(F)F)n3Cc3ccccc3)n12 [Example 86, 6-benzyl-1-methyl-N-[(1R)-2,2,2-trifluoro-1-methylethyl]-6H-pyrrolo[2,3-e][1,2,4]triazolo[4,3-a]pyridine-7-carboxamide]",100 to 1000,100 to 1000
"Cc1nnc2ccc3c(cc(-c4ccn(CCN(C)C)n4)n3Cc3ccccc3)n12 [Example 89, 2-[3-(6-benzyl-1-methyl-6H-pyrrolo[2,3-e][1,2,4]triazolo[4,3-a]pyridin-7-yl)-1H-pyrazol-1-yl]-N,N-dimethylethanamine]",100 to 1000,≤ 100
"Cc1nnc2ccc3c(cc(-c4ccn(C5(CC#N)CNC5)n4)n3Cc3ccccc3)n12 [Example 90, {3-[3-(6-benzyl-1-methyl-6H-pyrrolo[2,3-e][1,2,4]triazolo[4,3-a]pyridin-7-yl)-1H-pyrazol-1-yl]azetidin-3-yl}acetonitrile]",≤ 100,≤ 100
"CC(=O)N1CC(CC#N)(n2ccc(-c3cc4c(ccc5nnc(C)n54)n3Cc3ccccc3)n2)C1 [Example 91, {1-acetyl-3-[3-(6-benzyl-1-methyl-6H-pyrrolo[2,3-e][1,2,4]triazolo[4,3-a]pyridin-7-yl)-1H-pyrazol-1-yl]azetidin-3-yl}acetonitrile]",≤ 100,≤ 100
"Cc1nnc2ccc3c(cc(-c4ccn(C5(CC#N)CN(S(C)(=O)=O)C5)n4)n3Cc3ccccc3)n12 [Example 92, [3-[3-(6-benzyl-1-methyl-6H-pyrrolo[2,3-e][1,2,4]triazolo[4,3-a]pyridin-7-yl)-1H-pyrazol-1-yl]-1-(methylsulfonyl)azetidin-3-yl]acetonitrile]",≤ 100,≤ 100
"Cc1nnc2ccc3c(cc(-c4ccn(C5(CC#N)CN(C)C5)n4)n3Cc3ccccc3)n12 [Example 93, {3-[3-(6-benzyl-1-methyl-6H-pyrrolo[2,3-e][1,2,4]triazolo[4,3-a]pyridin-7-yl)-1H-pyrazol-1-yl]-1-methylazetidin-3-yl}acetonitrile]",≤ 100,≤ 100
"Cc1nnc2ccc3c(cc(C(=O)N(C)C)n3Cc3ccccc3)n12 [Example 94, 6-benzyl-N,N,1-trimethyl-6H-pyrrolo[2,3-e][1,2,4]triazolo[4,3-a]pyridine-7-carboxamide]",100 to 1000,100 to 1000
"Cc1nnc2ccc3c(cc(-c4ccn(CCC(=O)N(C)C)n4)n3Cc3ccccc3)n12 [Example 95, 3-[3-(6-benzyl-1-methyl-6H-pyrrolo[2,3-e][1,2,4]triazolo[4,3-a]pyridin-7-yl)-1H-pyrazol-1-yl]-N,N-dimethylpropanamide]",≤ 100,≤ 100
"CCNC(=O)CCn1ccc(-c2cc3c(ccc4nnc(C)n43)n2Cc2ccccc2)n1 [Example 96, 3-[3-(6-benzyl-1-methyl-6H-pyrrolo[2,3-e][1,2,4]triazolo[4,3-a]pyridin-7-yl)-1H-pyrazol-1-yl]-N-ethylpropanamide]",≤ 100,≤ 100
"Cc1nnc2ccc3c(cc(-c4ccn(CCC(N)=O)n4)n3Cc3ccccc3)n12 [Example 98, 3-[3-(6-benzyl-1-methyl-6H-pyrrolo[2,3-e][1,2,4]triazolo[4,3-a]pyridin-7-yl)-1H-pyrazol-1-yl]propanamide]",≤ 100,≤ 100
"CNC(=O)c1cc2c(ccc3nnc(C)n32)n1Cc1cccc(Cl)c1 [Example 99, 6-(3-chlorobenzyl)-N,1-dimethyl-6H-pyrrolo[2,3-e][1,2,4]triazolo[4,3-a]pyridine-7-carboxamide]",≤ 100,≤ 100
"Cc1nnc2ccc3c(cc(C(=O)N[C@H]4C[C@H](C#N)C4)n3Cc3ccccc3)n12 [Example 100, 6-benzyl-N-(trans-3-cyanocyclobutyl)-1-methyl-6H-pyrrolo[2,3-e][1,2,4]triazolo[4,3-a]pyridine-7-carboxamide]",≤ 100,≤ 100
"Cc1nnc2ccc3c(cc(C(=O)N[C@H]4C[C@@H](C#N)C4)n3Cc3ccccc3)n12 [Example 101, 6-benzyl-N-(cis-3-cyanocyclobutyl)-1-methyl-6H-pyrrolo[2,3-e][1,2,4]triazolo[4,3-a]pyridine-7-carboxamide]",100 to 1000,100 to 1000
"CNC(=O)c1cc2c(ccc3nnc(C)n32)n1Cc1cccc(F)c1 [Example 102, 6-(3-fluorobenzyl)-N,1-dimethyl-6H-pyrrolo[2,3-e][1,2,4]triazolo[4,3-a]pyridine-7-carboxamide]",≤ 100,≤ 100
"Cc1nnc2ccc3c(cc(-c4ccn(CCC(=O)N(C)C)n4)n3Cc3cccc(Cl)c3)n12 [Example 103, 3-{3-[6-(3-chlorobenzyl)-1-methyl-6H-pyrrolo[2,3-e][1,2,4]triazolo[4,3-a]pyridin-7-yl]-1H-pyrazol-1-yl}-N,N-dimethylpropanamide]",≤ 100,≤ 100
"Cc1nnc2ccc3c(cc(-c4ccn(CCC(=O)N5CCC5)n4)n3Cc3cccc(Cl)c3)n12 [Example 104, 7-[1-(3-azetidin-1-yl-3-oxopropyl)-1H-pyrazol-3-yl]-6-(3-chlorobenzyl)-1-methyl-6H-pyrrolo[2,3-e][1,2,4]triazolo[4,3-a]pyridine]",≤ 100,≤ 100
